This is an account of results in ChEMBL document CHEMBL1201862, “PubChem BioAssay data set” (2004).

Among the test systems are BT-549; EKVX; HCC 2998; HT-29; Hs-578T; M14; MOLT-4; NCI-H522; OVCAR-4; OVCAR-5; SF-268; SF-539; SK-MEL-2; SK-OV-3; SR; T47D; U-251; UACC-257; UACC-62; UO-31.
Common to all, as to test: NCI-60 cell line screen, 48 h

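These data come from cells grown in 96-well plates and exposed to compound for 48 hours at five concentrations. GI50 marks 50% less growth.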 Activity calls are given as the source filed them. Rule as the data show it: active = GI50 up to about 1.1 µM and inactive = higher. Some results are limits rather than exact numbers.

For the compound `COc1ccc(/C=C/c2cc(=O)cc(/C=C/c3ccc(OC)c(O)c3)o2)cc1O`, the GI50 in the test on BT-549 was 2.65 µM (inactive); in the test on EKVX, 4.52 µM (inactive); in the test with HCC 2998, 1.78 µM (inactive); in the test on HT-29, 1.98 µM (inactive); in the test with Hs-578T, 3.5 µM (inactive); in the test with M14, 2.31 µM (inactive). Besides, the GI50 was 2.24 µM (inactive) in the test on MOLT-4; 2.24 µM (inactive) with NCI-H522; 2.81 µM (inactive) in the test with OVCAR-4; 9.4 µM (inactive) in the test with OVCAR-5; 3.02 µM (inactive) in the test on SF-268; 1.98 µM (inactive) with SF-539. Further, the GI50 is 2.69 µM (inactive) in the test with SK-MEL-2; 5.66 µM (inactive) in the test with SK-OV-3; 1.02 µM (active) with SR; 1.98 µM (inactive) in the test on T47D; 1.94 µM (inactive) in the test on U-251; 2.04 µM (inactive) in the test with UACC-257. Besides, the GI50 in the test on UACC-62 is 1.75 µM (inactive); in the test on UO-31 it was 3.83 µM (inactive).
Regarding `COC(=O)C(Cc1c[nH]c2ccccc12)NC(=O)c1ccc(-c2ccc(Cl)cc2Cl)o1` (stereo not given), the GI50 in the test on BT-549 was > 100 µM (inactive); in the test on EKVX it was 27.4 µM (inactive); in the test with HCC 2998, 18.4 µM (inactive); with HT-29, 15.7 µM (inactive); in the test on Hs-578T it was > 100 µM (inactive); with M14 it was 64 µM (inactive). The GI50 in the test with MOLT-4 is 17.6 µM (inactive); with NCI-H522, 64.3 µM (inactive); in the test on OVCAR-4, 38.3 µM (inactive); in the test with OVCAR-5 it was > 100 µM (inactive); with SF-268 it was > 100 µM (inactive); with SF-539, 21.7 µM (inactive). For the same compound, the GI50 with SK-MEL-2 is 34.8 µM (inactive); in the test with SK-OV-3, > 100 µM (inactive); with SR it was 26.1 µM (inactive); with T47D it was 27.5 µM (inactive); in the test with U-251 it was 42.7 µM (inactive); in the test on UACC-257, 16.9 µM (inactive). In addition, the GI50 with UACC-62 was 43.3 µM (inactive); in the test on UO-31, 45.4 µM (inactive).
Turning to `CSC1=NN(c2ccccc2)C(=O)C1=C(SC)SC`, the GI50 is 27.4 µM (inactive) with BT-549; 27.7 µM (inactive) in the test on EKVX; 25.6 µM (inactive) in the test on HCC 2998; 19.1 µM (inactive) with HT-29; 18.1 µM (inactive) in the test on Hs-578T; 37.2 µM (inactive) with M14. Also, the GI50 in the test on MOLT-4 was 26 µM (inactive); in the test with NCI-H522 it was 2.44 µM (inactive); with OVCAR-4 it was 19.4 µM (inactive); in the test with OVCAR-5 it was 31.6 µM (inactive); with SF-268 it was 26.1 µM (inactive); in the test with SF-539, 21.7 µM (inactive). Further, the GI50 is 22.8 µM (inactive) with SK-MEL-2; 31.1 µM (inactive) in the test with SK-OV-3; 24 µM (inactive) with SR; 18.2 µM (inactive) with T47D; 22.2 µM (inactive) with U-251; 16 µM (inactive) in the test with UACC-257. The GI50 is 21.2 µM (inactive) in the test with UACC-62 and 12.1 µM (inactive) in the test on UO-31.
Take `CCCCCCN(CCCCCC)C(=S)N/N=C(\C)c1ccccn1`: the GI50 in the test on BT-549 was 1.68 µM (inactive); in the test on EKVX, 0.531 µM (active); in the test on HCC 2998 it was 1.61 µM (inactive); in the test with HT-29, 1.51 µM (inactive); with Hs-578T, 1.09 µM (active); in the test on M14, 0.76 µM (active). For the same compound, the GI50 was 0.179 µM (active) in the test on MOLT-4; 0.527 µM (active) with NCI-H522; 0.457 µM (active) in the test on OVCAR-4; 1.63 µM (inactive) with OVCAR-5; 0.345 µM (active) in the test on SF-268; 1.09 µM (active) in the test on SF-539. For the same compound, the GI50 with SK-MEL-2 was 1.06 µM (active); with SK-OV-3, 1.4 µM (inactive); with SR, 0.436 µM (active); with T47D, 0.269 µM (active); with U-251, 0.393 µM (active); in the test with UACC-257, 1.6 µM (inactive). The GI50 was 1 µM (active) in the test with UACC-62 and 0.344 µM (active) in the test with UO-31.
